Reference: patent US8969386B2, “Modulators of CFTR” (Vertex Pharmaceuticals Incorporated, priority 2007, dated 2015)

Molecular target: T1, ΔF508-CFTR (Homo sapiens, UniProt P13569, DEL508-508)
T1 construct: expressed in transfected cells
Assay: ΔF508-CFTR correction, membrane potential optical (FRET/VIPR) assay
Assay type: cell-based
Conditions: NIH3T3 mouse fibroblasts stably expressing ΔF508-CFTR; for Emax: read-out: % Efficacy
From the text: Assays for Detecting and Measuring ΔF508-CFTR Correction Properties of Compounds
Membrane potential optical methods for assaying ΔF508-CFTR modulation properties of compounds
The optical membrane potential assay utilized voltage-sensitive FRET sensors described by Gonzalez and Tsien (See Gonzalez, J. E. and R. Y. Tsien (1995) “Voltage sensing by fluorescence resonance energy transfer in single cells” Biophys J 69(4): 1272-80, and Gonzalez, J. E. and R. Y. Tsien (1997) “Improved indicators of cell membrane potential that use fluorescence resonance energy transfer” Chem Biol 4(4): 269-77) in combination with instrumentation for measuring fluorescence changes such as the Voltage/Ion Probe Reader (VIPR) (See Gonzalez, J. E., K. Oades, et al. (1999) “Cell-based assays and instrumentation for screening ion-channel targets” Drug Discov Today 4(9): 431-439).
These voltage sensitive assays are based on the change in fluorescence resonant energy transfer (FRET) between the membrane-soluble, voltage-sensitive dye, DiSBAC2(3), and a fluorescent phospholipid, CC2-DMPE, which is attached to the outer leaflet of the plasma membrane and acts as a FRET donor. Changes in membrane potential (Vm) cause the negatively charged DiSBAC2(3) to redistribute across the plasma membrane and the amount of energy transfer from CC2-DMPE changes accordingly. The changes in fluorescence emission were monitored using VIPR™ II, which is an integrated liquid handler and fluorescent detector designed to conduct cell-based screens in 96- or 384-well microtiter plates.
1. Identification of Correction Compounds
To identify small molecules that correct the trafficking defect associated with ΔF508-CFTR; a single-addition HTS assay format was developed. The cells were incubated in serum-free medium for 16 hrs at 37° C. in the presence or absence (negative control) of test compound. As a positive control, cells plated in 384-well plates were incubated for 16 hrs at 27° C. to “temperature-correct” ΔF508-CFTR. The cells were subsequently rinsed 3× with Krebs Ringers solution and loaded with the voltage-sensitive dyes. To activate ΔF508-CFTR, 10 μM forskolin and the CFTR potentiator, genistein (20 μM), were added along with Cl^−-free medium to each well. The addition of Cl^−-free medium promoted Cl^− efflux in response to ΔF508-CFTR activation and the resulting membrane depolarization was optically monitored using the FRET-based voltage-sensor dyes.
NIH3T3 mouse fibroblasts stably expressing ΔF508-CFTR are used for optical measurements of membrane potential. The cells are maintained at 37° C. in 5% CO2 and 90% humidity in Dulbecco's modified Eagle's medium supplemented with 2 mM glutamine, 10% fetal bovine serum, 1×NEAA, β-ME, 1× pen/strep, and 25 mM HEPES in 175 cm^2 culture flasks. For all optical assays, the cells were seeded at 30,000/well in 384-well matrigel-coated plates and cultured for 2 hrs at 37° C. before culturing at 27° C. for 24 hrs for the potentiator assay. For the correction assays, the cells are cultured at 27° C. or 37° C. with and without compounds for 16-24 hours Electrophysiological Assays for assaying ΔF508-CFTR modulation properties of compounds

T1 sequence (P13569 with tags, fused parts or gaps DEL508-508): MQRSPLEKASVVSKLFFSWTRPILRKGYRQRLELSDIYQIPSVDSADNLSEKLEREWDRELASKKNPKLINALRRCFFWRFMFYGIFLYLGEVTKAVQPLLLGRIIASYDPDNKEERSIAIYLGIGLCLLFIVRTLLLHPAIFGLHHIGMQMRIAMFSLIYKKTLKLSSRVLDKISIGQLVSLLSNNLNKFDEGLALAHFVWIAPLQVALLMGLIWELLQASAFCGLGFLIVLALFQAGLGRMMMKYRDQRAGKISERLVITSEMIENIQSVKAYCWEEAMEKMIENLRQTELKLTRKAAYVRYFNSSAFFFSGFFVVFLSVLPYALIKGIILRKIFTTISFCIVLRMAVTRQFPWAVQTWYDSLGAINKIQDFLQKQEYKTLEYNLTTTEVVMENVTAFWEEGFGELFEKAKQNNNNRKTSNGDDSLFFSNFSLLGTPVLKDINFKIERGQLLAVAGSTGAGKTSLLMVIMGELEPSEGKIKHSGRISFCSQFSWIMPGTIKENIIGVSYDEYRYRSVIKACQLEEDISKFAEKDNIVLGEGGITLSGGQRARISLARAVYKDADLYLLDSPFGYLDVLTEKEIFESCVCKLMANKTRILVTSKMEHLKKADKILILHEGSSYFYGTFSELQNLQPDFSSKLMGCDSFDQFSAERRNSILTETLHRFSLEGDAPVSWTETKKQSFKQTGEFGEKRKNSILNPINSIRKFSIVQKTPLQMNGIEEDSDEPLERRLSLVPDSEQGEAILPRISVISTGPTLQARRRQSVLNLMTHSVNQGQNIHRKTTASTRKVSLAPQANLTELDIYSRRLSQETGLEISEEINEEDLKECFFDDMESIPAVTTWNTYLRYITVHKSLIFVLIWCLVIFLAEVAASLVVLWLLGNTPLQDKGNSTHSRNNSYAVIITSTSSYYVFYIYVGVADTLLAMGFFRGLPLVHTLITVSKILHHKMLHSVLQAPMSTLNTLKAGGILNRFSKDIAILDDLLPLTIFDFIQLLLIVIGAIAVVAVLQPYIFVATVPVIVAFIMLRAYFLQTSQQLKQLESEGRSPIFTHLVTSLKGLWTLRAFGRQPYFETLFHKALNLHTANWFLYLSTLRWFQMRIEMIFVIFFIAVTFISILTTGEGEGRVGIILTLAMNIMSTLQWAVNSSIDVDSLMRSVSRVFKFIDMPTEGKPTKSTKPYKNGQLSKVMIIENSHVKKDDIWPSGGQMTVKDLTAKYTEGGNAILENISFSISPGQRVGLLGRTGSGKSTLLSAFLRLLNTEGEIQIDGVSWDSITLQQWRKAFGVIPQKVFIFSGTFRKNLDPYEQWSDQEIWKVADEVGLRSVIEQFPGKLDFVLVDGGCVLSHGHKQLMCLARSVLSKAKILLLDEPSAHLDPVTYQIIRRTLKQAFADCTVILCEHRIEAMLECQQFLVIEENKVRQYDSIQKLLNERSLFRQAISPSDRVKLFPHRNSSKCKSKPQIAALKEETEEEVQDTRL

Compound	EC50	Emax
Cc1ccc(NC(=O)C2(c3ccc4c(c3)OC(F)(F)O4)CC2)nc1-c1ccc(=O)n(C)c1 [Compound 52]	< 2000 nM	50 to 100%
COc1ncc(-c2nc(NC(=O)C3(c4ccc5c(c4)OC(F)(F)O5)CC3)ccc2C)cc1C(=O)O [Compound 53]	< 2000 nM	> 100%
COc1ccc(-c2nc(NC(=O)C3(c4ccc5c(c4)OC(F)(F)O5)CC3)cc(C)c2C)cn1 [Compound 57]	< 2000 nM	> 100%
Cc1ccc(NC(=O)C2(c3ccc4c(c3)COC4)CC2)nc1-c1c[nH]c(=O)c(C)c1 [Compound 59]	2000 to 5000 nM	50 to 100%
Cc1ccc(NC(=O)C2(c3ccc4c(c3)OCCO4)CC2)nc1-c1c[nH]c(=O)c(C)c1 [Compound 60]	< 2000 nM	50 to 100%
COc1ccc(C2(C(=O)Nc3ccc(C)c(-c4c[nH]c(=O)c(C)c4)n3)CC2)cc1Cl [Compound 62]	< 2000 nM	50 to 100%
COc1cccc(C2(C(=O)Nc3ccc(C)c(-c4c[nH]c(=O)c(C)c4)n3)CC2)c1 [Compound 63]	< 2000 nM	50 to 100%
Cc1cc(NC(=O)C2(c3ccc4c(c3)OC(F)(F)O4)CC2)nc(-c2ccn(CCO)c(=O)c2)c1 [Compound 64]	< 2000 nM	> 100%
Cc1cc(NC(=O)C2(c3ccc4c(c3)CCO4)CC2)nc(-c2ccc(=O)[nH]c2)c1 [Compound 68]	< 2000 nM	50 to 100%
Cc1cc(NC(=O)C2(c3ccc4c(c3)CCO4)CC2)nc(-c2ccc[nH]c2=O)c1 [Compound 69]	< 2000 nM	50 to 100%
Cc1cc(NC(=O)C2(c3ccc4c(c3)CCO4)CC2)nc(-c2cc[nH]c(=O)c2)c1 [Compound 70]	< 2000 nM	50 to 100%
COc1ncc(-c2nc(NC(=O)C3(c4ccc5c(c4)OC(F)(F)O5)CC3)ccc2C)cc1Cl [Compound 71]	< 2000 nM	> 100%
COc1cc(-c2nc(NC(=O)C3(c4ccc5c(c4)OC(F)(F)O5)CC3)ccc2C)cnc1OC [Compound 72]	< 2000 nM	> 100%
COc1ncc(-c2nc(NC(=O)C3(c4ccc5c(c4)OC(F)(F)O5)CC3)ccc2C)cc1C(=O)N(C)C [Compound 73]	< 2000 nM	50 to 100%
Cc1ccc(NC(=O)C2(c3ccc4c(c3)OC(F)(F)O4)CC2)nc1-c1c[nH]c(=O)c(N)c1 [Compound 77]	< 2000 nM	> 100%
Cc1ccc(NC(=O)C2(c3ccc4c(c3)CCO4)CC2)nc1-c1ccc(=O)[nH]c1 [Compound 78]	< 2000 nM	50 to 100%
Cc1ccc(NC(=O)C2(c3ccc4c(c3)CCO4)CC2)nc1-c1cc[nH]c(=O)c1 [Compound 80]	< 2000 nM	50 to 100%
CCOC(=O)NCCn1cc(-c2nc(NC(=O)C3(c4ccc5c(c4)OC(F)(F)O5)CC3)ccc2C)ccc1=O [Compound 81]	< 2000 nM	> 100%
Cc1c[nH]c(=O)c(-c2nc(NC(=O)C3(c4ccc5c(c4)CCO5)CC3)ccc2C)c1 [Compound 83]	< 2000 nM	50 to 100%
Cc1ccc(NC(=O)C2(c3ccc4c(c3)CCO4)CC2)nc1-c1ccc[nH]c1=O [Compound 84]	< 2000 nM	50 to 100%
COc1cc(C)c(-c2nc(NC(=O)C3(c4ccc5c(c4)OC(F)(F)O5)CC3)cc(C)c2C)cn1 [Compound 89]	< 2000 nM	> 100%
Cc1c[nH]c(=O)c(-c2nc(NC(=O)C3(c4ccc5c(c4)OC(F)(F)O5)CC3)cc(C)c2C)c1 [Compound 91]	< 2000 nM	> 100%
COc1ncccc1-c1cccc(NC(=O)C2(c3ccc4c(c3)OCO4)CC2)n1 [Compound 93]	< 2000 nM	> 100%
Cc1cc(NC(=O)C2(c3ccc4c(c3)OC(F)(F)O4)CC2)nc(-c2ccc(=O)[nH]c2)c1C#N [Compound 96]	< 2000 nM	> 100%

The remaining lines, values ahead:

EC50	Emax	Compound
< 2000 nM	> 100%	O=C(Nc1cccc(-c2ccc[nH]c2=O)n1)C1(c2ccc3c(c2)OC(F)(F)O3)CC1 [Compound 51]
< 2000 nM	50 to 100%	Cc1ncc(NC(=O)C2(c3ccc4c(c3)OC(F)(F)O4)CC2)nc1-c1ccc[nH]c1=O [Compound 54]
< 2000 nM	50 to 100%	Cc1ncc(NC(=O)C2(c3ccc4c(c3)OC(F)(F)O4)CC2)nc1-c1ccc(=O)[nH]c1 [Compound 55]
< 2000 nM	> 100%	COc1ncccc1-c1nc(NC(=O)C2(c3ccc4c(c3)OC(F)(F)O4)CC2)cc(C)c1C [Compound 56]
< 2000 nM	> 100%	COc1cc(-c2nc(NC(=O)C3(c4ccc5c(c4)OC(F)(F)O5)CC3)cc(C)c2C)ccn1 [Compound 58]
< 2000 nM	50 to 100%	Cc1ccc(NC(=O)C2(c3ccc(Cl)cc3)CC2)nc1-c1c[nH]c(=O)c(C)c1 [Compound 61]
< 2000 nM	50 to 100%	Cc1cc(NC(=O)C2(c3ccc4c(c3)OC(F)(F)O4)CC2)nc(-c2ccc(=O)[nH]c2)c1C [Compound 65]
< 2000 nM	> 100%	Cc1cc(NC(=O)C2(c3ccc4c(c3)OC(F)(F)O4)CC2)nc(-c2ccc[nH]c2=O)c1C [Compound 66]
< 2000 nM	> 100%	Cc1cc(NC(=O)C2(c3ccc4c(c3)OC(F)(F)O4)CC2)nc(-c2cc[nH]c(=O)c2)c1C [Compound 67]
2000 to 5000 nM	< 50%	Cc1ccc(NC(=O)C2(c3ccc4c(c3)OC(F)(F)O4)CC2)nc1-c1ccc(=O)n(CC(=O)NC#N)c1 [Compound 74]
< 2000 nM	50 to 100%	Cc1ccc(NC(=O)C2(c3ccc4c(c3)CCO4)CC2)nc1-c1c[nH]c(=O)c(C)c1 [Compound 76]
< 2000 nM	> 100%	Cc1ccc(NC(=O)C2(c3ccc4c(c3)OC(F)(F)O4)CC2)nc1-c1ccc(=O)n(C[C@@H](O)CO)c1 [Compound 79]
< 2000 nM	> 100%	Cc1ccc(NC(=O)C2(c3ccc4c(c3)OC(F)(F)O4)CC2)nc1-c1cc(F)c[nH]c1=O [Compound 82]
< 2000 nM	> 100%	Cc1ccc(NC(=O)C2(c3ccc4c(c3)OC(F)(F)O4)CC2)nc1-c1cc(Cl)c[nH]c1=O [Compound 85]
< 2000 nM	> 100%	Cc1ccc(NC(=O)C2(c3ccc4c(c3)OC(F)(F)O4)CC2)nc1-c1cc[nH]c(=O)c1Cl [Compound 86]
< 2000 nM	> 100%	COc1ncc(C)cc1-c1cc(C)cc(NC(=O)C2(c3ccc4c(c3)OC(F)(F)O4)CC2)n1 [Compound 87]
< 2000 nM	> 100%	COc1ncc(C)cc1-c1nc(NC(=O)C2(c3ccc4c(c3)OC(F)(F)O4)CC2)cc(C)c1C [Compound 88]
< 2000 nM	> 100%	Cc1cc(=O)[nH]cc1-c1nc(NC(=O)C2(c3ccc4c(c3)OC(F)(F)O4)CC2)cc(C)c1C [Compound 90]
< 2000 nM	50 to 100%	Cc1cc(NC(=O)C2(c3ccc4c(c3)OC(F)(F)O4)CC2)nc(-c2cc(C)c[nH]c2=O)c1 [Compound 92]
2000 to 5000 nM	> 100%	COc1ccc(-c2cccc(NC(=O)C3(c4ccc5c(c4)OCO5)CC3)n2)cn1 [Compound 94]
< 2000 nM	> 100%	Cc1ccc(NC(=O)C2(c3ccc4c(c3)OC(F)(F)O4)CC2)nc1-c1ccc(=O)n(CCS(C)(=O)=O)c1 [Compound 95]
